Measurements taken from patent publication US8076329B2, “Histamine H3-receptor ligands and their therapeutic applications” (Bioprojet, priority 2005, dated 2011).
Where “and” joins values, the source holds several entries; their conditions need not be identical. Identical values can stand only once. Like-named read-outs stand apart in the source and are kept apart here.

Key:
[1] = biological target: CYP2D6 (Homo sapiens, UniProt P10635); test: Cytochrome inhibition, fluorometric microtiter plate assay; assay type: in vitro ADME; details: human recombinant CYP2D6, substrate AMMC, compounds of the invention
Description: (§1) The ability of drug in human to inhibit the catalytic activity of cytochrome P-450 isoforms was assayed using microtiter plate-based, fluorometric assays for the activities of the five human major CYP forms. Inhibition potential was determined in vitro after incubation of fluorescent model substrates over various incubation time with human recombinant cytochrome isoforms in the absence or in presence of increasing concentrations of test molecules (from 1 nM to 100 μM), in comparison with specific CYP isoform inhibitors.
(§2) Incubation of drug was carried out at 37° C.±0.5° C. under agitation in the presence of human recombinant cytochrome P-450 isoforms and a NADPH generating system. The incubation conditions for each cytochrome isoform were as follows: […]

[2] = biological target: CYP3A4 (Homo sapiens, UniProt P08684); test: as above; assay type: in vitro ADME; details: human recombinant CYP3A4, substrate BFC, compounds of the invention
Description: as §1, §2

[3] = read-out: CYP2D6 cytochrome inhibition (IC50, concentrations in μM for 50% inhibition)
[4] = read-out: CYP3A4 cytochrome inhibition (IC50, concentrations in μM for 50% inhibition)
[5] = CYP2D6 cytochrome inhibition (IC50, concentrations in μM for 50% inhibition)
[6] = CYP3A4 cytochrome inhibition (IC50, concentrations in μM for 50% inhibition)

CYP3A4, sequence (P08684 whole entry): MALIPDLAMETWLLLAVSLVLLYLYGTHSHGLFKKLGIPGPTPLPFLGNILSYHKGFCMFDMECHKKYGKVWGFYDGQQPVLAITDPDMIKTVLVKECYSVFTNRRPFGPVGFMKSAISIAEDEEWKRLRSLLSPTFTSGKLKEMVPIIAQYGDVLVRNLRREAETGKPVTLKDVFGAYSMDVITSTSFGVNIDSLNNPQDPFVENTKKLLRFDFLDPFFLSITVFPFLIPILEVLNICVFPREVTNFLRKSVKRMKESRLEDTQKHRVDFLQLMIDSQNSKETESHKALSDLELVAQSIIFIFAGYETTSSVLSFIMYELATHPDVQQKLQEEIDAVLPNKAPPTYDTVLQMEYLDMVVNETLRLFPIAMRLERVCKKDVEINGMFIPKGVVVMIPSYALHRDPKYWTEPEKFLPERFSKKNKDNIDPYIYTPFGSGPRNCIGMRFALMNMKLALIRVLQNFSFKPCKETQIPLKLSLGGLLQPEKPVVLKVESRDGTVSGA
CYP2D6, sequence (P10635 whole entry, canonical isoform): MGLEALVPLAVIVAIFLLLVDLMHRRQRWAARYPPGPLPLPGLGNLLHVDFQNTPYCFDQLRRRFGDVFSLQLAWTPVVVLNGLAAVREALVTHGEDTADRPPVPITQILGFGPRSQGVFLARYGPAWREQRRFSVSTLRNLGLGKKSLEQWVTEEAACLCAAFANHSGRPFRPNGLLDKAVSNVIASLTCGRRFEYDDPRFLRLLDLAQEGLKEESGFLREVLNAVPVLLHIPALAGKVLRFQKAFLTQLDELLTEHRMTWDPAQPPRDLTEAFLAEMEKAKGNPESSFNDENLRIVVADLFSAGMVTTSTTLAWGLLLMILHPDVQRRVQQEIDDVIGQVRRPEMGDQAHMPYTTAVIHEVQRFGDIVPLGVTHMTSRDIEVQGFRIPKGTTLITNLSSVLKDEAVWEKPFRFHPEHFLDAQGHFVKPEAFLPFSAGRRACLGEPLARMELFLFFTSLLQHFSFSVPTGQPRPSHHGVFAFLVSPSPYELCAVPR

Molecule	IC50 [1, 3] [µM]	IC50 [2, 4]	IC50 [1, 5] [µM]	IC50 [2, 6]	IC50 ([2]; human, recombinant human CYP3A4, probe BFC, CYP3A4 cytochrome inhibition (IC50, concentrations in μM for 50% inhibition)) [µM]
1-{3-[4-(cis-4-dimethylaminocyclohex-1-yl)phenoxy]propyl}piperidine, dioxalate and 1-{3-[4-(trans-4-dimethylaminocyclohex-1-yl)phenoxy]propyl}-piperidine, dioxalate [Example 18]	> 10	43 µM and 50 µM	–	–	–
1-{3-[4-(cis-4-morpholinocyclohex-1-yl)phenoxy]propyl}piperidine, dihydrochloride and 1-{3-[4-(trans-4-morpholinocyclohex-1-yl)phenoxy]-propyl}piperidine, dihydro-chloride [Example 40]	> 100	66 µM	–	–	–
CC1CCCN(CCCOc2ccc(C(C)(C)O)cc2)C1 (racemic) [Example 6, (RS)-1-{3-[4-(1-hydroxy-1-methylethyl)phenoxy]propyl}-3-methylpiperidine]	–	–	> 10	> 10 µM	–
CC1CCCN(CCCOc2ccc(-c3ccccc3)cc2)C1 (racemic) [Example 26, (RS)-1-{3-[(biphenyl-4-yl)oxy]propyl}-3-methylpiperidine]	–	–	14	8 µM	–
C[C@H]1C[C@H](C)CN(CCCOc2ccc(C(=O)N3CCCC3)cc2)C1 (relative stereo) [Example 2, trans-1-{3-[4-(N,N-tetramethylenecarbamoyl)phenoxy]propyl}-3,5-dimethylpiperidine]	–	–	> 10	> 10 µM	–
C[C@@H]1C[C@@H](C)CN(CCCOc2ccc(C(C)(C)O)cc2)C1 (relative stereo) [Example 5, trans-1-{3-[4-(1-hydroxy-1-methylethyl)phenoxy]propyl}-3,5-dimethylpiperidine]	–	–	> 10	67 µM	–
C=C(C)c1ccc(OCCCN2C[C@@H](C)C[C@H](C)C2)cc1 (relative stereo) [Example 10, trans-1-{3-(4-isopropenylphenoxy)propyl]-3,5-dimethylpiperidine]	–	–	47	30 µM	–
C[C@@H]1C[C@@H](C)CN(CCCOc2ccc(Oc3ccccc3)cc2)C1 (relative stereo) [Example 14, trans-1-{3-[4-(phenoxy)phenoxy]propyl}-3,5-dimethylpiperidine]	–	–	> 10	> 10 µM	–
C[C@@H]1C[C@@H](C)CN(CCCOc2ccc(C3=NCCCC3)cc2)C1 (relative stereo) [Example 16, trans-6-{4-[3-(3,5-dimethylpiperidino)propoxy]phenyl}-2,3,4,5-tetrahydropyridine]	–	–	> 100	22 µM	–
C[C@@H]1C[C@@H](C)CN(CCCOc2ccc([C@H]3CC[C@@H](N(C)C)CC3)cc2)C1 (relative stereo) [Example 20, trans-1-{3-[4-(cis-4-dimethylaminocyclohex-1-yl)phenoxy]propyl}-3,5-dimethylpiperidine, dioxalate and trans-1-{3-[4-(trans-4-dimethylaminocyclohex-1-yl)-phenoxy]propyl}-3,5-dimethylpiperidine, dioxalate]	–	–	> 10	38 µM and 35 µM	–
C[C@@H]1C[C@@H](C)CN(CCCOc2ccc(-c3ccccc3)cc2)C1 (relative stereo) [Example 22, trans-1-{3-[(biphenyl-4-yl)oxy]propyl}-3,5-dimethylpiperidine]	–	–	13	3 µM	–
Cc1ccc(-c2ccc(OCCCN3C[C@@H](C)C[C@H](C)C3)cc2)cc1 (relative stereo) [Example 27, trans-3,5-dimethyl-1-{3-[(4′-methylbiphenyl-4-yl)oxy]propyl}piperidine]	–	–	> 10	> 1 µM	–
C[C@@H]1C[C@@H](C)CN(CCCOc2ccc(-c3ccncc3)cc2)C1 (relative stereo) [Example 31, trans-3,5-dimethyl-1-{3-[4-(4-pyridyl)phenoxy]propyl}piperidine]	–	–	4	4 µM	–
C[C@H]1C[C@H](C)CN(CCCOc2ccc(-n3cccc3)cc2)C1 (relative stereo) [Example 33, trans-3,5-dimethyl-1-{3-[4-(pyrrol-1-yl)phenoxy]propyl}piperidine]	–	–	3	7 µM	–
C[C@@H]1C[C@@H](C)CN(CCCOc2ccc(-c3cc[nH]n3)cc2)C1 (relative stereo) [Example 34, trans-3,5-dimethyl-1-{3-[4-(pyrazol-3-yl)phenoxy]propyl}piperidine]	–	–	20	–	10
N#CCc1ccc(OCCCN2CCCCC2)cc1 [Example 4]	–	–	> 10	> 10 µM	–
C=CCC(O)(CC=C)c1ccc(OCCCN2CCCCC2)cc1 [Example 9, 1-{3-[4-(1-hydroxy-1-allylbut-3-enyl)phenoxy]propyl}piperidine]	–	–	8	3 µM	–
C(=C\c1ccc(OCCCN2CCCCC2)cc1)/c1ccccc1 [Example 11, trans-1-{3-(4-styrylphenoxy)propyl]piperidine]	–	–	5	20 µM	–

Molecule	IC50 [1, 3] [µM]	IC50 [2, 4]	IC50 [1, 5] [µM]	IC50 [2, 6]	IC50 ([2]; human, recombinant human CYP3A4, probe BFC, CYP3A4 cytochrome inhibition (IC50, concentrations in μM for 50% inhibition)) [µM]
C[C@H]1C[C@H](C)CN(CCCOc2ccc([C@H]3CC[C@H](N(C)C)CC3)cc2)C1 [Example 12, (3S,5S)-1-{3-[4-(trans-4-dimethylaminocyclohex-1-yl)phenoxy]propyl}-3,5-dimethylpiperidine]	–	–	> 10	28 µM	–
c1ccc(COc2ccc(OCCCN3CCCCC3)cc2)cc1 [Example 13, 1-{3-[4-(benzyloxy)phenoxy]propyl}piperidine]	–	–	23	16 µM	–
c1cc([C@H]2CC[C@H](N3CCCC3)CC2)ccc1OCCCN1CCCCC1 [Example 19, 1-{3-[4-(cis-4-tetramethylenaminocyclohex-1-yl)phenoxy]propyl}piperidine, dioxalate and 1-{3-[4-(trans-4-tetramethylenaminocyclohex-1-yl)phenoxy]propyl}-piperidine, dioxalate]	–	–	> 10	42 µM and 48 µM	–
c1ccc(-c2ccc(OCCCN3CCCC3)cc2)cc1 [Example 21, 1-{3-[(biphenyl-4-yl)oxy]propyl}pyrrolidine]	–	–	> 10	> 10 µM	–
C[C@H]1C[C@H](C)CN(CCCOc2ccc(-c3ccccc3)cc2)C1 [Example 23, (3S,5S)-1-{3-[(biphenyl-4-yl)oxy]propyl}-3,5-dimethylpiperidine]	–	–	13	3 µM	–
COc1ccc(-c2ccc(OCCCN3CCCCC3)cc2)cc1 [Example 25, 1-{3-[(4′-methoxybiphenyl-4-yl)oxy]propyl}piperidine]	–	–	> 10	> 10 µM	–
c1cc(-c2ccc(OCCCN3CCCCC3)cc2)ccn1 [Example 30]	–	–	7	11 µM	–
c1cc(-c2ccc(OCCCN3CCOCC3)cc2)ccc1OCCCN1CCCCC1 [Example 36, 4-(3-{[4′-(3-piperidinopropoxy)biphenyl-4-yl]oxy}propyl)morpholine]	–	–	> 10	3 µM	–
c1cc(-c2ccc(OCCCN3CCCC3)cc2)ccc1OCCCN1CCCC1 [Example 38, di-1,1′-{(biphenyl-4,4′-diyl)bis[oxy(propan-1,3-diyl)]}pyrrolidine]	–	–	> 10	30 µM	–
C[C@H]1CCCN(CCCOc2ccc(-c3ccncc3)cc2)C1 [Example 39, (3S)-3-methyl-1-{3-[4-(4-pyridyl)phenoxy]propyl}piperidine]	–	–	6	11 µM	–
C(=C\c1ccc(-c2ccc(OCCCN3CCCCC3)cc2)cc1)/CN1CCCCC1 [Example 44, (E)-1-(3-{[4′-(3-piperidinoprop-1-en-1-yl)biphenyl-4-yl]oxy}propyl)piperidine]	–	–	> 10	> 1 µM	–
C(=C/c1ccc(-c2ccc(OCCCN3CCCCC3)cc2)cc1)/CN1CCCCC1 [Example 45, (Z)-1-(3-{[4′-(3-piperidinoprop-1-en-1-yl)biphenyl-4-yl]oxy}propyl)piperidine]	–	–	79	5 µM	–
CN1CCN(c2ccc(-c3ccc(OCCCN4CCCCC4)cc3)cc2)CC1 [Example 46, 1-methyl-4-[4′-(3-piperidinopropoxy)biphenyl]piperazine]	–	–	> 100	12 µM	–
CN(C)[C@H]1CC[C@@H](Cc2ccc(OCCCN3CCCCC3)cc2)CC1 [Example 47, 1-{3-[4-(cis-4-dimethylaminocyclohex-1-yl)methylphenoxy]propyl}piperidine]	–	–	107	37 µM	–
c1cc(-c2ccc(OCCCN3CCCCC3)cc2)ccc1CCCN1CCCCC1 [Example 48]	–	–	2	2 µM	–
C[C@H]1C[C@H](C)CN(CCCOc2ccc([C@H]3CC[C@H](N)CC3)cc2)C1 [Example 49, (3S,5S)-1-{3-[4-(trans-4-aminocyclohex-1-yl)phenoxy]propyl}-3,5-dimethylpiperidine]	–	–	> 10	27 µM	–
C[C@H]1CCCN(CCCOc2ccc(-c3cc[n+]([O-])cc3)cc2)C1 [Example 51, (3S)-4-{4-[3-(3-methylpiperidin-1-yl)propoxy]phenyl}pyridine 1-oxide]	–	–	> 100	72 µM	–
[O-][n+]1ccc(-c2ccc(OCCCN3CCCCC3)cc2)cc1 [Example 53, 4-[4-(3-piperidinopropoxy)phenyl]pyridine 1-oxide]	–	–	64	57 µM	–
